Reference: patent US12409206B2, “Use of cyclosporine analogues for treating fibrosis” (Hepion Pharmaceuticals, Inc., priority 2020, dated 2025)

Test system: human precision cut liver slices (PCLS)
Experiment: PCLS RNA-Seq, Nonstimulation Protocol: Non-stimulated+CRV vs Non-stimulated+Vehicle
Assay type: cell-based
Conditions: for log2FoldChange: Non-stimulated+CRV vs Non-stimulated+Vehicle; for fold change in RNA: absence of TGFβ+PDGF-BB, universal in all donors
Description: PCLS were obtained from 5 human donors who underwent resection of liver cancer. Replicate slices were collected from healthy margins of the resections and cultured for 4 or 6 days depending on the experimental protocol. In the Nonstimulation Protocol slices were cultured for 6 days and treated for the entire period with DMSO vehicle or 5 μM CRV431. In the Stimulation Protocol slices were rested for 1 day and then administered the cytokines, TGFβ and PDGF-BB, for 3 days to stimulate inflammation and fibrosis. DMSO vehicle, CRV431 (1 and 5 μM), Alk5i (10 μM), obeticholic acid (5 μM), elafibranor (5 μM), resmetirom ([…]), and Aramchol (5 μM) were administered individually as drug treatments in the Stimulation Protocol concurrent with TGFβ+PDGF-BB. Culture medium treatments were replaced daily.
Four types of evaluations were conducted on the PCLS: (a) secretion of inflammation and fibrosis biomarkers into the culture medium, (b) histological staining and quantitation of Sirius red as a measure of tissue fibrosis, (c) gene expression of inflammation and fibrosis biomarkers by RT-PCR, and (d) RNA sequencing (RNA-Seq) of the complete transcriptome. Each of the four types of evaluation is described below: • (a) Biomarker secretion. Spent culture medium was collected daily from duplicate slices for each treatment. ELISAs were used to quantify secretion of monocyte chemoattractant protein (MCP-1), interleukin-6 (IL-6), tissue inhibitor of metalloproteinase-1 (TIMP1), hyaluronic acid, fibronectin, and collagen 1α1. For each donor the mean level of biomarker secretion in each treatment group was expressed as a percentage change relative to DMSO vehicle, the percentages averaged for all donors, and finally the mean daily percentage change calculated from all days of evaluation. Results are shown in FIG. 8A (secreted markers-% daily average change). • (b) Sirius red histological staining. […] Sirius red was quantified morphometrically in the histological sections as the percentage area with Sirius red staining in 10 sections from each treatment. In the Nonstimulation Protocol the quantity of Sirius red staining was expressed relative to the vehicle group. In the Stimulation Protocol the quantity of Sirius red staining was expressed relative to nonstimulated PCLS (0%) and TGFβ+PDGF-BB-stimulated+vehicle PCLS (100%). Results are shown in FIG. 8B (Sirius red staining for tissue fibrosis). • (c) Gene expression by RT-PCR. RNA was isolated from duplicate liver slices per treatment at the end of the experiments and evaluated by RT-PCR for 5 markers of inflammation and fibrosis: MCP-1, IL-6, TIMP1, αSMA, and collagen 1α1. β actin was used as a reference gene to calculate relative levels of each target gene RNA. […] Results are shown in FIG. 8C (gene expression by RT-PCR). • (d) Gene expression by RNA-Seq. RNA sequencing of the complete transcriptome (30 million reads per sample) was conducted on vehicle and 5 μM CRV431 treatment groups from 3 donors both from the Nonstimulation and Stimulation Protocols. Data were analyzed by bioinformatics software programs to identify genes that were differentially expressed between vehicle and CRV431 treatments.
For the evaluation done for (d), 12 samples corresponding to 3 different donor slides which underwent 4 different treatments were studied. the comparisons carried out in this analysis are: (1) TGFb/PDGF+CRV vs TGFb/PDGF+Vehicle (V), and (2) Non-stimulated+CRV vs Non-stimulated+Vehicle. […] Table 1. Samples for evaluation (d)
Quality Control check was performed in all samples. All samples had more than 30 million reads and a quality score average >35 for almost all the bases in the sequences. The duplication levels are expected as it is RNA sequencing, and different copies of the same RNA are expected to be present in the samples. All samples had good amount of reads and quality, therefore all samples passed the QC checked and were included in the analysis. […]

## CC[C@@H]1NC(=O)[C@H]([C@H](O)[C@H](C)CCCCCCNC(C)=O)N(C)C(=O)[C@H](C(C)C)N(C)C(=O)[C@H](CC(C)C)N(C)C(=O)[C@H](CC(C)C)N(C)C(=O)[C@@H](C)NC(=O)[C@H](C)NC(=O)[C@H](CC(C)C)N(C)C(=O)[C@H](C(C)C)NC(=O)[C@H](CC(C)C)N(C)C(=O)[C@@H](C)N(C)C1=O [CRV431]
Gene ACOT9
  log2FoldChange: 0.543
Gene AP003119.3
  log2FoldChange: −0.67
Gene AREG
  log2FoldChange: 1.034
Gene CCDC149
  log2FoldChange: 0.76
Gene CDH11
  log2FoldChange: −0.915
Gene CXCL12
  log2FoldChange: 0.623
Gene CYP24A1
  log2FoldChange: −1.499
Gene DDX60
  log2FoldChange: −0.739
Gene DKK1
  fold change in RNA: +3.8 fold
Gene DNAJB9
  log2FoldChange: 0.721
Gene ESM1
  fold change in RNA: −2.2 fold
Gene GDPD5
  log2FoldChange: −0.606
Gene GMPPA
  log2FoldChange: 0.768
Gene IFI44L
  fold change in RNA: −4.8 fold
Gene KRT7
  log2FoldChange: 0.563
Gene MPEG1
  log2FoldChange: 0.584
Gene MS4A4A
  log2FoldChange: 0.735
Gene NCOA3
  log2FoldChange: −1.438
  fold change in RNA: −2.7 fold
Gene NREP
  log2FoldChange: −0.638
Gene NUCB2
  log2FoldChange: 0.851
Gene NUMA1
  log2FoldChange: −0.537
Gene PGM3
  log2FoldChange: 0.751
Gene POU2F2
  log2FoldChange: 2.856
Gene SERPINB2
  log2FoldChange: 1.255
Gene SNHG3
  log2FoldChange: 0.665
Gene SOWAHC
  log2FoldChange: −0.601
Gene SRGAP2B
  log2FoldChange: −0.729
Gene mIR-194-2
  fold change in RNA: −7.9 fold
